Measured values from US20120308570A1, “METHODS FOR TREATING DISEASES” (priority 2009, published 2012).
Changes are numbered by the printed parent chain.

Columns and labels:
Type in all cases: binding
[1] = molecular target: T1, SSB-2 SPRY domain (SSB-2ΔSB, residues 12-224) (Mus musculus, UniProt O88838); assay: ITC of SSB-2 SPRY domain with iNOS N-terminal peptides; details: 25° C., 100 mM TrisHCl, 150 mM NaCl, pH 8.0
T1 construct: GST (N, cleaved yes); made in house; host or cells: E. coli BL21 (DE3)
T1 sequence (O88838 12-224): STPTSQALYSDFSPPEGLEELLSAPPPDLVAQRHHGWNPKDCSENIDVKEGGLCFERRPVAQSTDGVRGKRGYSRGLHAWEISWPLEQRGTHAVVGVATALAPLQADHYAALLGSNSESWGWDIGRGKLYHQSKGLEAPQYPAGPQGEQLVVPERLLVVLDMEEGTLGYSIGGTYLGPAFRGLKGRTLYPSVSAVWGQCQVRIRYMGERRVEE
Source text: The construct used for expression of recombinant murine SSB-2 protein included almost all the native sequence of mouse SSB-2 except for the SOCS box and the first eleven residues (residues 12-224, SWISS-PROT accession number 088838). This sequence, together with six residues at the N-terminus (GSSARQ (SEQ ID NO:38), numbered 6-11) and seven at the C-terminus (TRRIHRD (SEQ ID NO:39), numbered 225-231), both originating from the vector, gave a construct of 226 residues in total. This was expressed as a GST fusion protein in BL21 (DE3) E. coli. For ITC and co-precipitation experiments, bacteria were grown in L-broth. For NMR analysis, bacteria were grown in M9 minimal media supplemented with ^15N NH4Cl (99%, 1 g L−1). The GST fusion protein was purified from clarified cell lysates using Glutathione Sepharose 4B (Amersham Biosciences) then cleaved in situ using thrombin (Roche). […]
To determine whether the SSB-2-SPRY domain could interact with the sequence identified by the database searches, a series of peptides including the wild-type and various mutant sequences corresponding to amino acids 19-31 of murine iNOS, were synthesized and binding affinities for the SSB-2-SPRY domain (residues 12-224; SSB-2ΔSB) measured using isothermal titration calorimetry (ITC) (Table 2, FIG. 3).

[2] = molecular target: T2, Y120A-SSB-2ΔSB (Mus musculus, UniProt O88838, Y120A); assay: ITC of Y120A mutant SSB-2 SPRY domain with iNOS peptide; details: versus SSB-2ΔSB
T2 construct: tyrosine 120 had been mutated to alanine (Y120A-SSB-2ΔSB; a.a.12-224); GST (N, cleaved yes); made in house; host or cells: E. coli (bacterially expressed)
T2 sequence (O88838 12-224 Y120A): T1 sequence (O88838 12-224) with Y109A
Description: Wild-type and mutant iNOS peptides (Table 2), corresponding to Lys19-Thr31 of mouse iNOS, were synthesized by GL Biochem (Shanghai) Ltd. These peptides were N-terminal acetylated and C-terminal amidated. All ITC measurements were carried out at 25° C. using a Microcal omega VP-ITC (Microcal Inc., Northampton, Mass.). SSB-2ΔSB was dialysed against buffer (100 mM TrisHCl, 150 mM NaCl, pH 8.0), and wild-type and mutant iNOS N-terminal peptides were prepared in the same buffer from 5 mM stocks. Solutions of 5 to 10 μM SSB-2ΔSB in the cell were titrated by injection of a total of 290 μL of 50-200 μM of iNOS peptides. Data analysis was performed using the evaluation software, MicroCal Origin version 5.0. All curves were fitted using the nonlinear least-squares fitter and the “One Set of Sites” model.
Additional conserved residues flanking the DINNN (SEQ ID NO:36) sequence (Lys22, Val28 and Lys30) also contribute to the interaction, as alanine substitutions of these residues had 2- to 4-fold lower SSB-2 binding affinities than the wild-type peptide. […] Mutation of Glu21 had no effect on SSB-2:iNOS peptide binding. […] Binding of an SSB-2-SPRY domain in which tyrosine 120 had. been mutated to alanine (Y120A-SSB-2ΔSB) was assessed by ITC. The iNOS peptide bound Y120A-SSB-2ΔSB with ˜5000-fold reduced affinity, evidence that Tyr120 in SSB-2 is critical for binding to the iNOS peptide (Table 2).

[3] = molecular target: T3, SSB-2ΔSB (Mus musculus, UniProt O88838); assay: 1H-15N HSQC NMR titration of iNOS peptide into 15N-labelled SSB-2ΔSB; details: 0.1 mM SSB-2ΔSB, ratios 1:0.5, 1:1, 1:1.5, pH 7.0, 22° C.
T3 construct: GST (N, cleaved yes); made in house; host or cells: E. coli BL21 (DE3)
T3 sequence (O88838 12-224): T1 sequence (O88838 12-224)
Description: NMR spectra were recorded on an Avance 500 spectrometer equipped with a cryoprobe. The ^1H chemical shifts were referenced indirectly to DSS at 0 ppm via the H2O signal, and the ^13C and ^15N chemical shifts were referenced indirectly using absolute frequency ratios (Wishart et al., 1995). Spectra were processed using Topspin version 1.3 (Bruker Biospin) and analysed using XEASY, version 1.3. ^15N-labelled SSB-2ΔSB Sample for NMR analysis were prepared in H2O containing 5% ^2H2O, 10 mM sodium phosphate, 50 mM sodium chloride, 2 mM EDTA, 2 mM DTT and 0.02% (w/v) sodium azide at pH 7.0. Two-dimensional ^1H-^15N HSQC spectrum of a 0.1 mM ^15N-labelled SSB-2ΔSB sample was recorded and 22° C. using a data matrix size of 2048×256 and with 128 scans per t1 increment. The spectral widths were 13.5 ppm for ^1H and 40.0 ppm for ^15N; carrier frequencies were 4.7 ppm for ^1H and 118 ppm for ^15N. Unlabelled iNOS N-terminal peptide (wild-type) were then titrated into the ^15N-labelled SSB-2ΔSB sample, and ^1H-^15N HSQC spectra recorded at ^15N-labelled SSB-2ΔSB:iNOS peptide ratios of 1:0.5, 1:1, and 1:1.5.
Nuclear magnetic resonance (NMR) spectroscopy was then used to further analyze the SSB-2:iNOS peptide interaction. […]

## Ac-KEEKDINNNVKKT-NH2 [I, Ac-KEEKDINNNVKKT-NH2]
[1]
  Kd: 13 nM
[2]
  fold reduced affinity for Y120A-SSB-2ΔSB: ~5000 fold
[3]
  binding to SSB-2ΔSB by NMR: bound to SSB-2ΔSB
